Test results taken from the OligoGym collection.
Values joined by “and” are separate entries in the source; they are usually repeats but may differ in a detail not shown here. Equal entries are not always repeated. After the bases stand the sugars from the 5' end (letter, count) and the backbone: PS all phosphorothioate, else s phosphorothioate and o phosphodiester by linkage. Methylation of C is not given here. e = 2'-O-(2-methoxyethyl) (MOE); k = constrained ethyl (cEt); d = 2'-deoxy (DNA)

Biological target: KRAS
Settings: ASO

| Sequence | target mRNA inhibition (A431, 2 µM) | also measured |
| --- | --- | --- |
| GGTGTAACATAGGTTA (sugars kdddddddddkekeke, PS) | 57% | target mRNA inhibition (A431, 0.185 µM): 1%; target mRNA inhibition (A431, 0.556 µM): 35%; target mRNA inhibition (A431, 1.667 µM): 56%; target mRNA inhibition (A431, 5 µM): 71%; target mRNA inhibition (NCI-H460, 0.037 µM): 52.2% |
| GTCCAGTGATACTTTC (sugars k3 d10 k3, PS) | 44% | – |
| GTCCAGTGATACTTTC (sugars kdddddddddkekeke, PS) | 20% | – |
| GTCCAGTGATACTTTC (sugars kkkdddddddddkeke, PS) | 33% | – |
| GTCCAGTGATACTTTC (sugars kkkddddddddkdkdk, PS) | 30% | – |
| GTCTATTCATACCAGG (sugars k3 d10 k3, PS) | 60% | – |
| GTGTAACATAGGTTAA (sugars k3 d10 k3, PS) | 30% | – |
| GTGTTTATGCAATGTT (sugars kkdddddddddkekek, PS) | 65% | target mRNA inhibition (A431, 0.185 µM): 22%; target mRNA inhibition (A431, 0.556 µM): 54%; target mRNA inhibition (A431, 1.667 µM): 77%; target mRNA inhibition (A431, 5 µM): 83% |
| TAAAACAAATGCTAAT (sugars k3 d10 k3, PS) | 5% | – |
| TAATTACTTATGCAGA (sugars k3 d10 k3, PS) | 17% | – |
| TACTTATGCAGAGAAA (sugars k3 d10 k3, PS) | 0% | – |
| TAGTTTCACATAGCAA (sugars k3 d10 k3, PS) | 51% | – |
| TAGTTTCCATTGCCTT (sugars k3 d10 k3, PS) | 16% | – |
| TATCTTGTTGAGCTAT (sugars k3 d10 k3, PS) | 33% | – |
| TATGCAATGTTAATTT (sugars k3 d10 k3, PS) | 8% | – |
| TCCAGTGATACTTTCA (sugars kkdddddddddkekek, PS) | 37% | – |
| TCCAGTGATACTTTCA (sugars kkddddddddkekekk, PS) | 24% | – |
| TCCATTTATGTGACTA (sugars kkkdddddddddkeke, PS) | 8% | – |
| TCTATTCATACCAGGT (sugars k3 d10 k3, PS) | 26% | – |
| TCTGTCTATTCATACC (sugars k3 d10 k3, PS) | 12% | – |
| TCTTATGGTTAGGGGA (sugars k3 d10 k3, PS) | 8% | – |
| TCTTGATTTGTCAGCA (sugars kkddddddddddkeke, PS) | 91% and 92% | target mRNA inhibition (A431, 0.037 µM): 84%; target mRNA inhibition (A431, 0.125 µM): 65% and 61%; target mRNA inhibition (NCI-H460, 0.037 µM): 67.6% |

| Sequence | target mRNA inhibition (A431, 2 µM) | also measured |
| --- | --- | --- |
| TGAATTAGTCTCCATT (sugars k3 d10 k3, PS) | 17% | – |
| TGATTTGTCAGCAGGA (sugars kdddddddddkekeke, PS) | 32% | – |
| TGATTTGTCAGCAGGA (sugars kkdddddddddkdkdk, PS) | 15% | – |
| TGCAGTGTGACTCAGT (sugars k3 d10 k3, PS) | 55% | – |
| TGCTAATAATTTAGTG (sugars k3 d10 k3, PS) | 6% | – |
| TGCTGTGAAACTCTCT (sugars k3 d10 k3, PS) | 27% | – |
| TGCTGTGAAACTCTCT (sugars kkdddddddddkdkdk, PS) | 26% | – |
| TGGTGTAACATAGGTT (sugars kkdddddddddkekek, PS) | 62% | target mRNA inhibition (A431, 0.185 µM): 21%; target mRNA inhibition (A431, 0.556 µM): 45%; target mRNA inhibition (A431, 1.667 µM): 66%; target mRNA inhibition (A431, 5 µM): 83% |
| TGGTGTAACATAGGTT (sugars kkkddddddddkekek, PS) | 67% | target mRNA inhibition (A431, 0.185 µM): 31%; target mRNA inhibition (A431, 0.556 µM): 53%; target mRNA inhibition (A431, 1.667 µM): 79%; target mRNA inhibition (A431, 5 µM): 82% |
| TGTATCTTGTTGAGCT (sugars k3 d10 k3, PS) | 31% | – |
| TGTCTATTCATACCAG (sugars k3 d10 k3, PS) | 16% | – |
| TGTGAAACTCTCTATG (sugars k3 d10 k3, PS) | 4% | – |
| TGTTTATGCAATGTTA (sugars kkddddddddkekekk, PS) | 56% | target mRNA inhibition (A431, 0.185 µM): 22%; target mRNA inhibition (A431, 0.556 µM): 47%; target mRNA inhibition (A431, 1.667 µM): 68%; target mRNA inhibition (A431, 5 µM): 76% |
| TTAGGGGAATTACAAG (sugars k3 d10 k3, PS) | 23% | – |
| TTAGTGATTAGGTCAA (sugars k3 d10 k3, PS) | 59% and 51% and 52% | target mRNA inhibition (A431, 0.185 µM): 32%; target mRNA inhibition (A431, 0.556 µM): 56%; target mRNA inhibition (A431, 1.667 µM): 68%; target mRNA inhibition (A431, 5 µM): 82% |
| TTAGTGATTAGGTCAA (sugars kddddddddddkekek, PS) | 12% | – |
| TTAGTGATTAGGTCAA (sugars kdddddddddkekeke, PS) | 0% | – |
| TTAGTGATTAGGTCAA (sugars kkkdddddddddkeke, PS) | 32% | – |
| TTCTGATGTGACTCAG (sugars k3 d10 k3, PS) | 26% | – |
| TTGATTTGTCAGCAGG (sugars kddddddddddkekek, PS) | 17% | – |
| TTGTTGAGCTATCCAA (sugars k3 d10 k3, PS) | 3% | – |
| TTTAAAAAAAAAATTA (sugars k3 d10 k3, PS) | 3% | – |
